Measurements reported in ChEMBL document CHEMBL1201862, “PubChem BioAssay data set” (2004).
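Dose response: 5 concentrations. Exposure: 48 h. Format: 96-well plates. Endpoint: linear interpolation; highest concentration if not reached. GI50 marks 50% less growth.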 Active and inactive are the calls of the source. No stated cut-off is given here; in the data, active = GI50 up to about 1.1 µM and inactive = higher.

Tests used:
Assay in all cases: growth of human tumour cells (NCI), 48 h
UO-31 = tested on: UO-31
A549 = tested on: A549
T47D = tested on: T47D
CAKI-1 = tested on: CAKI-1
IGROV-1 = tested on: IGROV-1
HOP-62 = tested on: HOP-62
HT-29 = tested on: HT-29
OVCAR-3 = tested on: OVCAR-3
NCI-H23 = tested on: NCI-H23
EKVX = tested on: EKVX
HCT-15 = tested on: HCT-15
SF-268 = tested on: SF-268
A498 = tested on: A498
OVCAR-8 = tested on: OVCAR-8
KM12 = tested on: KM12
SF-295 = tested on: SF-295
RXF 393 = tested on: RXF 393
HL-60 = tested on: HL-60
HOP-92 = tested on: HOP-92

Compound | GI50 (UO-31) | GI50 (A549) | GI50 (T47D) | GI50 (CAKI-1) | GI50 (IGROV-1) | GI50 (HOP-62) | GI50 (HT-29) | GI50 (OVCAR-3) | GI50 (NCI-H23) | GI50 (EKVX) | GI50 (HCT-15) | GI50 (SF-268) | GI50 (A498) | GI50 (OVCAR-8) | GI50 (KM12) | GI50 (SF-295) | GI50 (RXF 393) | GI50 (HL-60) | GI50 (HOP-92)
C=C(Br)CNC(=O)CCC(=O)NCC(=C)Br | > 100 µM (inactive) | > 100 µM (inactive) | > 100 µM (inactive) | > 100 µM (inactive) | > 100 µM (inactive) | > 100 µM (inactive) | > 100 µM (inactive) | > 100 µM (inactive) | > 100 µM (inactive) | > 100 µM (inactive) | > 100 µM | > 100 µM (inactive) | > 100 µM (inactive) | > 100 µM (inactive) | > 100 µM (inactive) | > 100 µM (inactive) | > 100 µM (inactive) | > 100 µM (inactive) | 
COc1ccc(/N=N/C(=N\c2ccc(F)cc2)c2ccc(N(CCC#N)CCC#N)cc2)cc1 | 68.5 µM (inactive) | 18.7 µM (inactive) | 11.2 µM (inactive) | 81.8 µM (inactive) | 19.9 µM (inactive) | 41.8 µM (inactive) | 39.5 µM (inactive) | 30.9 µM (inactive) | 17.4 µM (inactive) | 34.4 µM (inactive) | 54 µM | 35.2 µM (inactive) | 21.4 µM (inactive) | 33.5 µM (inactive) | 16.9 µM (inactive) | 32.9 µM (inactive) | 15.4 µM (inactive) |  | 25.6 µM (inactive)
COc1cc(C(=O)Oc2ccc3c(c2)OCO3)cc(OC)c1OC | > 100 µM (inactive) | > 100 µM (inactive) | > 100 µM (inactive) | > 100 µM (inactive) | > 100 µM (inactive) | > 100 µM (inactive) | > 100 µM (inactive) | > 100 µM (inactive) | > 100 µM (inactive) |  | > 100 µM | > 100 µM (inactive) | > 100 µM (inactive) | > 100 µM (inactive) | > 100 µM (inactive) | > 100 µM (inactive) | > 100 µM (inactive) | > 100 µM (inactive) | > 100 µM (inactive)
NC(=O)c1cc2ccc(O)cc2o/c1=N/c1ccccc1 | 3.6 µM (inactive) | 25.6 µM (inactive) | 16 µM (inactive) | 19.3 µM (inactive) | 26.5 µM (inactive) | 40.7 µM (inactive) | 33 µM (inactive) | 35.2 µM (inactive) | 18.1 µM (inactive) | 31.1 µM (inactive) | 26.4 µM | 51.2 µM (inactive) | 16.3 µM (inactive) | 30.3 µM (inactive) | 27.2 µM (inactive) | 43.5 µM (inactive) | 26.2 µM (inactive) | 25.1 µM (inactive) | 34 µM (inactive)
OCCOCCN1CCN(CCCN2c3ccccc3Sc3ccc(C(F)(F)F)cc32)CC1 | 5.74 µM (inactive) | 13.1 µM (inactive) | 0.955 µM (active) | 15.3 µM (inactive) | 9.84 µM (inactive) | 17.6 µM (inactive) | 2.33 µM (inactive) | 17.7 µM (inactive) | 16.4 µM (inactive) | 14.8 µM (inactive) | 21.6 µM | 16.5 µM (inactive) | 10.5 µM (inactive) | 15.2 µM (inactive) | 6.7 µM (inactive) | 12.9 µM (inactive) | 3.18 µM (inactive) |  | 14.1 µM (inactive)
c1ccc2c(c1)nc1n2CNC1 | > 100 µM (inactive) | > 100 µM (inactive) | > 100 µM (inactive) | > 100 µM (inactive) | > 100 µM (inactive) | > 100 µM (inactive) | > 100 µM (inactive) | > 100 µM (inactive) | > 100 µM (inactive) | > 100 µM (inactive) | > 100 µM | > 100 µM (inactive) | > 100 µM (inactive) |  | > 100 µM (inactive) | > 100 µM (inactive) | > 100 µM (inactive) | > 100 µM (inactive) | > 100 µM (inactive)
N#Cc1c(N)oc(-c2cccc([N+](=O)[O-])c2)c1C#N | 16.7 µM (inactive) | > 100 µM (inactive) | 50 µM (inactive) | 20.7 µM (inactive) | 23.6 µM (inactive) | > 10 µM (inactive) | 20 µM (inactive) |  | 21.4 µM (inactive) | 12.9 µM (inactive) | 16.1 µM | 31.4 µM (inactive) | 21 µM (inactive) | 21.1 µM (inactive) | > 10 µM (inactive) | > 100 µM (inactive) | 24.8 µM (inactive) | 28.5 µM (inactive) | 17.4 µM (inactive)
O=c1c(-c2ccccc2)nnc2n(Cc3ccccc3)c3ccccc3n12 | > 100 µM (inactive) | > 100 µM (inactive) | > 100 µM (inactive) | > 100 µM (inactive) | > 100 µM (inactive) |  | > 100 µM (inactive) |  | > 100 µM (inactive) | > 100 µM (inactive) | > 100 µM | > 100 µM (inactive) | > 100 µM (inactive) | > 100 µM (inactive) | > 100 µM (inactive) | > 100 µM (inactive) | 95.1 µM (inactive) | > 100 µM (inactive) | 28.6 µM (inactive)
Nc1nc2c(c(-c3ccccc3Cl)n1)COC/C2=C\c1ccccc1Cl | 17.1 µM (inactive) |  | 17.1 µM (inactive) | 16.3 µM (inactive) | 15.8 µM (inactive) | 18.1 µM (inactive) |  | 17.4 µM (inactive) | 17.1 µM (inactive) | 18.3 µM (inactive) | 15.9 µM | 16.9 µM (inactive) | 16.4 µM (inactive) | 16 µM (inactive) | 17.9 µM (inactive) | 14.3 µM (inactive) | 16 µM (inactive) | 3.08 µM (inactive) | 14.8 µM (inactive)
CC(C)CCCC(C)[C@H]1CC[C@H]2[C@@H]3CC[C@H]4C[C@@H](CCC=C(c5cc(Cl)c(O)c(C(=O)OC(C)C)c5)c5cc(Cl)c(O)c(C(=O)OC(C)C)c5)CC[C@]4(C)[C@H]3CC[C@]12C (stereo not given in full) |  | > 50 µM (inactive) | > 50 µM (inactive) | > 50 µM (inactive) | > 50 µM (inactive) | > 50 µM (inactive) | > 50 µM (inactive) | > 50 µM (inactive) | > 50 µM (inactive) | > 50 µM (inactive) | > 50 µM | > 50 µM (inactive) | > 50 µM (inactive) | > 50 µM (inactive) | > 50 µM (inactive) | > 50 µM (inactive) | > 50 µM (inactive) | > 50 µM (inactive) | > 50 µM (inactive)
Cc1c(-c2ccccc2)c(C#N)c2nnn(-c3ccc([N+](=O)[O-])cc3)c(=O)n12 |  |  | 21.9 µM (inactive) | 29.9 µM (inactive) | 10.2 µM (inactive) | 13.6 µM (inactive) | 8.99 µM (inactive) | 15.3 µM (inactive) | 21.3 µM (inactive) | 6.32 µM (inactive) | 20.7 µM | 12.7 µM (inactive) | 19.9 µM (inactive) | 10.9 µM (inactive) | 12.7 µM (inactive) | 18.7 µM (inactive) | 17.4 µM (inactive) | 1.92 µM (inactive) | 16.5 µM (inactive)
COC(=O)c1cc2c3c(c1)Oc1cc(C(=O)OC)cc4c1C3c1c(cc(C(=O)OC)cc1O4)O2 | 21 µM (inactive) | 12.6 µM (inactive) | 20 µM (inactive) | 14 µM (inactive) | 11.9 µM (inactive) | 11.4 µM (inactive) | 0.802 µM (active) | 10.3 µM (inactive) | 25.1 µM (inactive) | 16.4 µM (inactive) | > 32 µM | 9.18 µM (inactive) | > 76.2 µM (inactive) |  | 10.1 µM (inactive) | 10.6 µM (inactive) | 0.406 µM (active) | 3.03 µM (inactive) | 19.4 µM (inactive)
COc1ccc(N2C(=O)C3c4[nH]c5cccc(C)c5c4C4CCC(C(C)(C)C)CC4C3C2=O)cc1 (stereo not given) | > 10 µM (inactive) | > 10 µM (inactive) | > 10 µM (inactive) | > 10 µM (inactive) | > 10 µM (inactive) | > 10 µM (inactive) | > 10 µM (inactive) | > 10 µM (inactive) | > 10 µM (inactive) | > 10 µM (inactive) | > 10 µM | > 10 µM (inactive) | > 10 µM (inactive) | > 10 µM (inactive) | > 10 µM (inactive) | > 10 µM (inactive) | > 10 µM (inactive) | > 10 µM (inactive) | 
O=C(CCCN1CCC2(CC1)CC(=O)N(N1CCOCC1)C2=O)c1ccc(F)cc1 | > 100 µM (inactive) | > 100 µM (inactive) | > 100 µM (inactive) | > 100 µM (inactive) | > 100 µM (inactive) | > 100 µM (inactive) | > 100 µM (inactive) | > 100 µM (inactive) | > 100 µM (inactive) |  | > 100 µM | > 100 µM (inactive) | > 100 µM (inactive) | > 100 µM (inactive) | > 100 µM (inactive) | > 100 µM (inactive) | > 100 µM (inactive) | > 100 µM (inactive) | 
O=C1CC(c2cccc(Cl)c2)Nc2ccc(N3CCCC3)cc21 (stereo not given) | 0.0603 µM (active) | 0.0494 µM (active) | > 100 µM (inactive) | 0.0608 µM (active) | 0.13 µM (active) | 0.419 µM (active) | 0.0791 µM (active) | 0.158 µM (active) | 0.278 µM (active) | 0.0658 µM (active) | 0.203 µM | 0.115 µM (active) | 0.01 µM (active) | 0.0522 µM (active) | 0.361 µM (active) | 0.0439 µM (active) | 0.0224 µM (active) |  | 0.373 µM (active)
O=P1(N(CCCl)CCCl)Oc2ccc(Cl)cc2Sc2c(ccc(Cl)c2Cl)O1 (stereo not given) | 4.71 µM (inactive) | 3.78 µM (inactive) | 8.38 µM (inactive) | 15.2 µM (inactive) |  | 16 µM (inactive) | 7.29 µM (inactive) | 4.95 µM (inactive) | 4.27 µM (inactive) | 8.57 µM (inactive) | 5.18 µM | 92.9 µM (inactive) | 22.2 µM (inactive) | 8.71 µM (inactive) | 4.99 µM (inactive) | 3.18 µM (inactive) | 3.95 µM (inactive) | 4.1 µM (inactive) | 4.42 µM (inactive)
